In US20240246905A1 (University of Leicester, priority 2021, published 2024):
Values after ≈ are worked out from the molar mass of the structure shown. Like-named read-outs stand apart in the source and are kept apart here.

Tests used:
MSSA 476 [1] = experiment: MIC, broth micro-dilution; assay type: cell-based, Staphylococcus aureus
Protocol: (§1) E. coli DH5α, P. aeruginosa PA01 and the 53 S. aureus strains were recovered from frozen (−80° C.) glycerol (15% v/v) stocks on Lysogeny agar (LA)—Gram negative and trypticase soy agar (TSA)—plates at 37° C. for 24 hours. Single colonies were placed in either 3 mL Lysogeny broth (LB)—Gram negative or trypticase soy broth (TSB)—Gram positive and incubated at 37° C., 250 rpm for 18 hours.
(§2) Antibiotic MIC's were determined by a broth micro-dilution method according to Clinical Standard Laboratory Institute (CSLI) Guidelines (2017). Briefly, 96-well microplates, each containing 195 μL of the 1:2 dilution antibiotic in TSB, were inoculated with 5 μL of overnight cultured bacteria, diluted to give a starting bacterial concentration of 5×10^5 CFU/mL. The optical density of each well inoculated was recorded every 12 minutes over an 18 hour period at 37° C. The data from this was plotted in OriginPro8 (OriginLab) and sigmoidal curves fitted using the dose response function. Fitted values for each curve were used to calculate the MIC.

MRSA 252 [2] = experiment: MIC, broth micro-dilution; assay type: cell-based, Staphylococcus aureus
Protocol: as §1, §2

[3] = test system: Staphylococcus aureus 15981; experiment: Disc diffusion (Kirby-Bauer), zone of inhibition; assay type: cell-based; settings: 500 μg/mL, '/' = no zone
Protocol: as §1
(§3) The antibiotic activity was determined using a Kirby-Bauer method according to Clinical Standard Laboratory Institute (CSLI) Guidelines (2017). Briefly, 180 μL of a 1 in 200 dilution (in LB or TSB) of overnight cultures of selected Gram negative and Gram positive bacteria were applied to an agar plate containing the solid growth medium, Mueller-Hinton agar (MHA). Sterile discs, inoculated with 50 μL of antibiotic, were first added to the agar plate before the plates were incubated for 24 hours at 37° C. Following incubation, the zone of inhibition (if it existed) was recorded.

MSSA 476 [4] = experiment: Disc diffusion (Kirby-Bauer), zone of inhibition; assay type: cell-based, Staphylococcus aureus; settings: 500 μg/mL, '/' = no zone; for zone of inhibition at 500 µg/mL: Staphylococcus aureus
Protocol: as §1, §3

MRSA 252 [5] = experiment: Disc diffusion (Kirby-Bauer), zone of inhibition; assay type: cell-based, Staphylococcus aureus; settings: 500 μg/mL, '/' = no zone; for zone of inhibition at 500 µg/mL: Staphylococcus aureus
Protocol: as §1, §3

Galleria mellonella = experiment: Systemic toxicity, Galleria mellonella survival; settings: n = 10, injection of 500 μg/mL
Protocol: Galleria mellonella wax worms purchased from www.livefoods.co.uk were inoculated with 10 μL of a series of dilutions of the antibiotics synthesised in-house. The antibiotic concentrations chosen for this study were the following: 1000 μg/mL, 500 μg/mL, 250 μg/mL, 125 μg/mL and 31.25 μg/mL. Each dilution was injected into 10 individual wax worms through their last pro-leg. The injected wax worms were stored at 25° C. for 5 days. The cytotoxicity was determined as the percentage survival rate of Galleria mellonella Wax worms after 5 days inoculation.

Escherichia coli DH5α = experiment: Disc diffusion (Kirby-Bauer), zone of inhibition; assay type: cell-based
Protocol: as §1, §3

HEK293 cells = experiment: Cytotoxicity assay, resazurin (CO-ADD); settings: HEK 293
Protocol: The cytotoxicity studies were performed by CO-ADD (The Community for Open Antimicrobial Drug Discovery), funded by the Wellcome trust (UK) and the University of Queensland, Australia.^(28) In this study, the compounds were screened against a human embryonic kidney cell line, HEK293, at a set concentration of 32 μg/mL.
DMEM supplemented with 10% FBS was used as growth media and the cells were incubated together with the compounds for 20 hours at 37° C. in 5% CO2.
Cytotoxicity (or cell viability) was measured by fluorescence, excitation: 560/10 nm, emission: 590/10 nm (F560/590), after addition of 5 μL of 25 μg/mL Resazurin (2.3 μg/mL final concentration) and after incubation for further 3 h at 37° C. in 5% CO2. The fluorescence intensity was measured using a Tecan M1000 Pro monochromator plate reader, using automatic gain calculation CC50 (concentration at 50% cytotoxicity) were calculated by curve fitting the inhibition values vs. log(concentration) using sigmoidal dose-response function, with variable fitting values for bottom, top and slope. The curve fitting was implemented using Pipeline Pilot's dose-response component.

C. albicans ATCC 90028 = experiment: Anti-fungal MIC (CO-ADD); assay type: cell-based; settings: Candida albicans, ATCC90028, read-out: MIC
Protocol: (§4) Fungal strains were cultured for 3 days on Yeast Extract-Peptone Dextrose (YPD) agar at 30° C. A yeast suspension of 1×10^6 to 5×10^6 CFU/mL (as determined by OD530) was prepared from five colonies. […] All plates were covered and incubated at 35° C. for 36 hours without shaking. […] The absorbance was measured using a Biotek Multiflo Synergy HTX plate reader. In both cases, the percentage of growth inhibition was calculated for each well, using the negative control (media only) and positive control (fungi without inhibitors) on the same plate. […] Due to a higher variance in growth and inhibition, a lower threshold was applied to the data for C. neoformans. In addition, the maximal percentage of growth inhibition is reported as DMax, indicating any compounds with marginal activity.

C. tropicalis ATCC 750 = experiment: Anti-fungal MIC (CO-ADD); assay type: cell-based; settings: Candida tropicalis, ATCC750, read-out: MIC
Protocol: as §4

C. tropicalis ATCC 450 = experiment: Anti-fungal MIC (CO-ADD); assay type: cell-based; settings: Candida tropicalis, ATCC450, read-out: MIC
Protocol: as §4

C. glabrata ATCC 90030 = experiment: Anti-fungal MIC (CO-ADD); assay type: cell-based; settings: Nakaseomyces glabratus, ATCC90030, read-out: MIC
Protocol: as §4

[6] = test system: C. neoformans H99; ATCC 208821; experiment: Anti-fungal MIC (CO-ADD); assay type: cell-based; settings: Cryptococcus neoformans, ATCC208821, read-out: MIC
Protocol: as §4

[7] = test system: C. deuterogattii ATCC 32609; experiment: Anti-fungal MIC (CO-ADD); assay type: cell-based; settings: read-out: MIC
Protocol: as §4

red blood cells = experiment: Hemolysis assay (CO-ADD); assay type: cell-based; settings: 32 μg/mL highest concentration tested
Text: A problem often encountered by emerging drugs is hemolysis, also known as drug-induced immune hemolytic anemia.

[8] = test system: Pseudomonas aeruginosa PA01; experiment: Disc diffusion (Kirby-Bauer), zone of inhibition; assay type: cell-based; settings: 500 μg/mL, '/' = no zone
Protocol: as §1, §3

[9] = test system: MRSA 252, MSSA 476, S. aureus 15981, P. aeruginosa PA01 and E. coli DH5α; experiment: Disc diffusion primary screening, five strains (statements in words); assay type: cell-based; settings: 500 μg/mL
Protocol: As such, the minimum inhibition concentration (MICs) of biologically active compounds were further assessed using the broth dilution method against the S. aureus strains; MRSA 252 and MSSA 476 (Table 1). The results of both assays enabled key structural elements and functional groups required for the compounds to retain their antibiotic activity to be identified.
as §3

[10] = Stability in the presence of glutathione (NMR); assay type: physicochemical; settings: up to 24 hours, DMSO-D6
Text: It is well known that compounds bearing an isocyanide group are usually highly reactive, capable of reacting with electrophiles, nucleophiles and radicals.^(30) As a result, it was important to identify any stability issues which might be encountered by the lead compounds, both in storage and in the presence of glutathione and cysteine. […] Another common feature of the lead compounds is the vinyl fragment. It was hypothesized that the presence of glutathione and cysteine found in eukaryotic cells could potentially interact with the electrophilic alkene group in the compounds, thus shutting down their antibiotic activity. To probe this potentially detrimental in vivo process, compound 39 was subjected to glutathione for up to 24 hours whilst compound 41 was added to cysteine for the same length of time.

Manduca sexta = experiment: Systemic toxicity, Manduca sexta survival and mass growth; assay type: in vivo; settings: 1% solution, by 48 hours
Text: The use of Galleria for evaluating systemic toxicity study provided a straightforward method for screening any immediate toxicity issues associated with the lead compounds. One problem encountered with this model is the complications of obtaining quantitative results since only live/dead outcomes can be recorded. As an alternative and quantitative approach for systemic toxicity, it was decided to use a new model using Manduca sexta as the subject, replacing the much smaller and difficult to handle, Galleria mellonella. The Manduca sexta assay allows for the mass change of the larvae to be measured over hours/days, thus giving information not only on survival but also on the organisms' fitness^(26) Promisingly, the 72 hour assay performed at concentrations of 1 mg/mL on the selected lead compounds gave identical results to those obtained using the Galleria infection model, indicating no apparent toxicity issues for the compounds. […] As a […] control, the Manduca were injected with a 1% solution of NaN3. […]
[…] The mass of each hornworm was measured before and up to 72 hours after injection at set 24 hour intervals. The systemic toxicity was determined as the percentage survival and mass growth relative to the positive control at the pre-determined set intervals.

MRSA 252 [11] = experiment: Resistance testing by serial passaging; assay type: cell-based, S. aureus; settings: 18 serial passage cycles
Protocol: Next a serial passage study was undertaken in order to elucidate the speed at which target bacteria might either evolve resistance or select for persister cells within that population following exposure to compound 36.
For resistance development by serial passaging, 5 μL of overnight cultured MRSA 252 cells were added to individual wells in a 96-well plate containing 195 μL of TSB supplemented with a range of antibiotic concentrations and incubated at 37° C. for 18 hours. Ofloxacin served as a control. Wells where bacterial growth was visible after 18 hours were plated on TSA plates and incubated at 37° C. for a further 18 hours. Single colonies obtained from the overnight cultured bacteria were then inoculated into fresh TSB medium, incubated at 37° C. for 18 hours before being used in the next cycle of the resistance testing. This process continued for 18 cycles.

[12] = test system: methicillin resistant Staphylococcus aureus strains; assay type: cell-based; settings: clinically relevant methicillin resistant Staphylococcus aureus strains
insect phenol-oxidases = experiment: Inhibition of insect phenol-oxidases; assay type: biochemical

In the case of `[C-]#[N+]C=Cc1c[nH]c2ccccc12` [Compound 25, 3-(2-Isocyanovinyl)-1H-indole], the MIC (MSSA 476 [1]; Staphylococcus aureus, MSSA) is reported as 166 µg/mL (≈ 987 µM), the MIC (MRSA 252 [2]) is reported as 61 µg/mL (≈ 363 µM) and the zone of inhibition at 500 µg/mL ([3]; Staphylococcus aureus, 15981, Staphylococcus aureus 15981) is reported as 16 mm. For the same compound, the zone of inhibition at 500 µg/mL (MSSA 476 [4]; MSSA) was 16 mm, the zone of inhibition at 500 µg/mL (MRSA 252 [5]; MRSA) was 18 mm and the “% survival after 5 days” value (Galleria mellonella) was 90%.
Compound `[C-]#[N+]C=Cc1c[nH]c2ccccc12` [Compound 26, 3-(2-Isocyanovinyl)-1H-indole] has an MIC (MSSA 476 [1]) of 222 µg/mL (≈ 1320 µM), an MIC (MRSA 252 [2]) of 20 µg/mL (≈ 119 µM) and a Zone of inhibition ([3]; Staphylococcus aureus 15981) of 22 mm. For the same compound, the zone of inhibition at 500 µg/mL (Escherichia coli DH5α; Escherichia coli) was 20 mm, the Zone of inhibition (MSSA 476 [4]) was 20 mm and the Zone of inhibition (MRSA 252 [5]) was 20 mm. For the same compound, the “% survival after 5 days” value (Galleria mellonella) was 100%.
With `[C-]#[N+]/C=C/c1ccccc1/C=C/c1ccccc1` [Compound 38, 1-((E)-2-Isocyanovinyl)-2-((E)-styryl)benzene] the “Concentration toxic to HEK 293 cells” value (HEK293 cells) was greater than 32000 ng/mL, the MIC (MSSA 476 [1]; Staphylococcus aureus, MSSA, read-out: MIC) was 3 µg/mL (≈ 13 µM) and the MIC (MRSA 252 [2]; Staphylococcus aureus, read-out: MIC) was 5 µg/mL (≈ 21.6 µM). It also gave an MIC (C. albicans ATCC 90028) of 2 to 4 µg/mL, an MIC (C. tropicalis ATCC 750) of 8 to 16 µg/mL and an MIC (C. tropicalis ATCC 450) of 2 µg/mL. For the same compound, the MIC (C. glabrata ATCC 90030) was greater than 32 µg/mL, the MIC [6] was 4 µg/mL and the MIC [7] was 2 µg/mL. For the same compound, the “Hemolytic activity (HC10)” value (red blood cells) was greater than 32 µg/mL, the zone of inhibition at 500 µg/mL [8] was 26 mm and the zone of inhibition at 500 µg/mL ([3]; Staphylococcus aureus 15981, read-out: Zone of inhibition) was 28 mm. It also gave a zone of inhibition at 500 µg/mL (Escherichia coli DH5α; Escherichia coli DH5α, 500 μg/mL, '/' = no zone, read-out: Zone of inhibition) of 28 mm, a zone of inhibition at 500 µg/mL (MSSA 476 [4]; read-out: Zone of inhibition) of 30 mm and a zone of inhibition at 500 µg/mL (MRSA 252 [5]; read-out: Zone of inhibition) of 30 mm. For the same compound, the “antibiotic activity in disc diffusion assays (in words)” value [9] was “retained antibiotic activity”.
With `[C-]#[N+]/C=C/c1ccccc1/C=C/c1ccncc1` [Compound 39] the MIC (MSSA 476 [1]) was 15 µg/mL (≈ 64.6 µM), the MIC (MRSA 252 [2]) was 12 µg/mL (≈ 51.7 µM) and the Zone of inhibition [8] was 20 mm. It also gave a Zone of inhibition ([3]; Staphylococcus aureus 15981) of 26 mm, a Zone of inhibition (Escherichia coli DH5α; Escherichia coli DH5α, 500 μg/mL, '/' = no zone) of 12 mm and a Zone of inhibition (MSSA 476 [4]) of 32 mm. For the same compound, the Zone of inhibition (MRSA 252 [5]) was 28 mm, the “structure after exposure to glutathione (NMR)” value [10] was “no change in the structure” and the “antibiotic activity in disc diffusion assays (in words)” value [9] was “retaining its activity against the Gram negative P. aeruginosa and E. coli”.
For `[N-]=[N+]=[N-].[Na+]` [Negative Control (NaN3), NaN3, reference compound], the “survival of Manduca sexta” value (Manduca sexta) was “had all died” and the “% survival after 5 days” value (Galleria mellonella) was 0%.
With `CC1COc2c(N3CCN(C)CC3)c(F)cc3c(=O)c(C(=O)O)cn1c23` (centres unmarked) [ofloxacin, reference compound] the “increase in MIC after serial passage” value (MRSA 252 [11]) was “greater than 10 fold”.
In the case of Byelyankacin, the “antibiotic activity (in words)” value [12] is reported as “good antibiotic activity” and the “inhibition of insect phenol-oxidases (in words)” value (insect phenol-oxidases) is reported as “inhibitor of insect phenol-oxidases”.
For phenol vinyl isocyanide [(E)-4], the “antibiotic activity (in words)” value [12] was “good antibiotic activity”.
